Here are results for eight molecules from ChEMBL document CHEMBL1201862, “PubChem BioAssay data set” (2004).

Holding throughout (assay): NCI tumour cell line growth inhibition, 48 h
Test [1] concerns A549.
For test [2], the system named is 786-0.
For test [3], the system named is HCT-15.
For test [4], the system named is ACHN.
Test [5] deals with HCC 2998.
The test system of test [6] is OVCAR-3.
The test system of test [7] is RPMI-8226.
Test [8] has as its system DU-145.
For test [9], the system named is MDA-MB-435.
Test [10] deals with RXF 393.
For test [11], the system named is UACC-62.
Test [12] has as its system UACC-257.
The test system of test [13] is TK-10.
Test [14] relates to SNB-75.
For test [15], the system named is OVCAR-5.
Test [16] relates to NCI-H23.
For test [17], the system named is SF-539.
For test [18], the system named is K562.
Test [19] relates to NCI-H460.
The subject of test [20] is A498.

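Tested at 5 concentrations; 48 h exposure; 96-well plates; endpoints linearly interpolated, else capped at highest concentration. GI50 = concentration required for 50% inhibition of growth.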 The source made the active and inactive calls. Rule as the data show it: active = GI50 up to about 1.1 µM and inactive = higher.

As to `COc1ccc(/C=C2\N=C(N3CCCCC3)NC2=O)cc1`, the GI50 was > 100 µM (inactive) in test [1]; > 100 µM (inactive) in [2]; over 100 µM in test [3]; > 100 µM (inactive) in test [4]; > 100 µM (inactive) in test [5]; > 100 µM (inactive) in test [6]. For the same molecule, the GI50 in test [7] was > 100 µM (inactive); in [8] it was > 100 µM (inactive); in test [9] it was > 100 µM (inactive); in [10] it was 64 µM (inactive); in test [11], > 100 µM (inactive); in [12], > 100 µM (inactive). The GI50 in [13] was > 100 µM (inactive); in test [14], 37.2 µM (inactive); in test [15] it was > 100 µM (inactive); in test [16], > 100 µM (inactive); in test [17] it was 54 µM (inactive).
Regarding `O=c1c2cc(I)ccc2nc(-c2cccs2)n1/N=C/c1ccccc1`, the GI50 in test [1] is > 100 µM (inactive); in [2], > 100 µM (inactive); in [3], over 100 µM; in [4], > 100 µM (inactive); in test [5], > 100 µM (inactive); in [6], > 100 µM (inactive). Further, the GI50 in test [7] is > 100 µM (inactive); in test [8], > 100 µM (inactive); in [9] it was > 100 µM (inactive); in test [10] it was > 100 µM (inactive); in test [11] it was > 100 µM (inactive); in test [12], 79.1 µM (inactive). Besides, the GI50 is > 100 µM (inactive) in [13]; > 100 µM (inactive) in [14]; 7.18 µM (inactive) in test [18]; > 100 µM (inactive) in test [15]; > 100 µM (inactive) in test [19]; > 100 µM (inactive) in test [16]. In addition, in test [17], the GI50 is > 100 µM (inactive).
For the molecule `CCOC(=O)c1c(NC(=S)Nc2ccc(C)cc2)sc2c1CCN(C)C2`, the GI50 in [1] is > 100 µM (inactive); in test [2], > 100 µM (inactive); in test [3], over 100 µM; in test [4], > 100 µM (inactive); in [6] it was > 100 µM (inactive); in test [7] it was > 100 µM (inactive). Besides, the GI50 in test [8] was > 100 µM (inactive); in [20], 59 µM (inactive); in test [10], > 100 µM (inactive); in [11] it was > 100 µM (inactive); in test [12] it was > 100 µM (inactive); in [13], > 100 µM (inactive). Also, the GI50 is < 0.01 µM (active) in test [14]; > 100 µM (inactive) in test [18]; > 100 µM (inactive) in [15]; > 100 µM (inactive) in test [19]; > 100 µM (inactive) in test [16]; > 100 µM (inactive) in test [17].
As for `CC1=C(C(=O)OC(C)C)C(c2ccccc2[N+](=O)[O-])C(C(=O)OC(CO[N+](=O)[O-])CO[N+](=O)[O-])=C(C)N1` (stereo unspecified), the GI50 is 3.09 µM (inactive) in test [1]; 3.62 µM (inactive) in [2]; 3.08 µM in test [3]; 3.21 µM (inactive) in test [4]; 5.83 µM (inactive) in test [5]; 6.49 µM (inactive) in test [6]. Moreover, the GI50 in [7] was 2.98 µM (inactive); in [8], 5.68 µM (inactive); in test [9], 3.48 µM (inactive); in test [10], 2.7 µM (inactive); in test [11], 2.07 µM (inactive); in test [12], 3.85 µM (inactive). The GI50 is 6.27 µM (inactive) in test [13]; 1.54 µM (inactive) in test [14]; 2.81 µM (inactive) in [18]; 13.8 µM (inactive) in [15]; 3.1 µM (inactive) in test [19]; 4.27 µM (inactive) in test [16]. In addition, the GI50 in test [17] was 3.18 µM (inactive).
In the case of `Cc1cc(=O)n2nc(CN3CCCCC3)sc2n1`, the GI50 is > 100 µM (inactive) in [1]; > 100 µM (inactive) in test [2]; over 100 µM in [3]; > 100 µM (inactive) in test [4]; > 100 µM (inactive) in [5]; > 100 µM (inactive) in test [6]. Moreover, the GI50 in test [7], in test [8], in test [9], in test [10], in test [11] and in [12] was > 100 µM (inactive) each time. The GI50 was > 100 µM (inactive) in test [13]; 54.5 µM (inactive) in test [14]; > 100 µM (inactive) in test [18]; > 100 µM (inactive) in test [15]; > 100 µM (inactive) in test [19]; > 100 µM (inactive) in [16]. Also, the GI50 in test [17] is > 100 µM (inactive).
Turning to `NC(=O)c1cc2ccc(O)cc2o/c1=N/NC(=O)c1ccccc1`, the GI50 in [1] was > 100 µM (inactive); in [2], 79.4 µM (inactive); in test [3] it was 79.3 µM; in test [4] it was 58.1 µM (inactive); in test [5] it was 33.4 µM (inactive); in [6], 80.5 µM (inactive). Further, the GI50 in [7] is 77.3 µM (inactive); in test [9], 74.3 µM (inactive); in test [20], 40.5 µM (inactive); in test [10], 40.6 µM (inactive); in test [11] it was 62.2 µM (inactive); in test [12], > 100 µM (inactive). For the same molecule, the GI50 is 36.1 µM (inactive) in test [13]; 25.9 µM (inactive) in [14]; 75.5 µM (inactive) in [18]; > 100 µM (inactive) in test [15]; 40.2 µM (inactive) in test [19]; 89.9 µM (inactive) in [16].
`O=C(N/N=C1\C(=O)N(c2nccs2)C(=O)C(=O)C1c1nc2ccccc2s1)c1ccccc1O` (stereo unspecified): the GI50 in test [1] is 52.1 µM (inactive); in test [2], > 100 µM (inactive); in test [3], 41.8 µM; in test [4] it was 28.6 µM (inactive); in [5] it was 15 µM (inactive); in test [6] it was 35.9 µM (inactive). Moreover, the GI50 is 61.4 µM (inactive) in test [7]; 65.3 µM (inactive) in [20]; 21.1 µM (inactive) in test [10]; 31.3 µM (inactive) in [11]; 35.7 µM (inactive) in test [12]; > 100 µM (inactive) in [13]. Moreover, the GI50 in test [14] is 3.3 µM (inactive); in [18], 19.7 µM (inactive); in test [15], > 100 µM (inactive); in [19], 53.3 µM (inactive); in test [16], 29.5 µM (inactive); in test [17], 28.1 µM (inactive).
In the case of `COC(=O)C(=O)C(C#N)c1nc2ccccc2s1` (stereo unspecified), the GI50 is > 100 µM (inactive) in [1]; > 100 µM (inactive) in test [2]; 57 µM in [3]; > 100 µM (inactive) in test [4]; > 100 µM (inactive) in test [5]; > 100 µM (inactive) in test [6]. Further, the GI50 in test [7], in [20], in test [10], in test [11], in test [12] and in test [13] was > 100 µM (inactive) in each case. Also, the GI50 in test [14] was 42.9 µM (inactive); in test [18], 57.4 µM (inactive); in [15] it was > 100 µM (inactive); in test [19], 63.4 µM (inactive); in test [16] it was > 100 µM (inactive); in [17], 98.9 µM (inactive).
